Measured values reported in patent US20080227638A1, “Use of abscisic acid to enhance growth control” (priority 2007, published 2008).

Legend:
Assay type in all cases: in vivo
[1] = test system: creeping bentgrass; assay: Golf course green creeping bentgrass height, ABA and trinexapac-ethyl (Example 4); details: 200 ppm ABA
Procedure: (§1) Field studies were conducted at the nursery green or the practice green at Countryside golf course (Mundelein, Ill.). Both greens were sand based and growing Penncross creeping bentgrass. Grass was managed with typical Illinois golf course management practices.
(§2) Chemical solutions were prepared with distilled water. Tween 20 (0.05% v/v) was used as an, adjuvant. Both trinexapac-ethyl (commercial product Primo Maxx, 11.3% active ingredient) and paclobutrazol (commercial product Trimmit 2SC, 22.3% active ingredient) were purchased from Syngenta Crop Protection Inc. (Greensboro, N.C.). Uniconazole-P (commercial product Sumagic, 0.55% active ingredient) was obtained from Valent U.S.A. Corporation (Walnut Creek, Calif.).
(§3) When treated with paclobutrazol or uniconazole-P, turfgrass received irrigation within 24 hours after application to flush chemicals to the root zone. After treatment, turfgrasses were arranged in a randomized complete block experimental design. Turfgrass quality, turfgrass height or clip fresh weight was measured on assigned dates. Turfgrass quality was visually rated on a 0-9 scale based on the color, uniformity and density of the grass with 0 as the worst and 9 as the best. Turfgrass height was measured as the distance between canopy surface and soil. Clips were collected from each plot; all plots were cut to a uniform height.
(§4) All experiments were randomized complete block experimental design. Data were analyzed by analysis of variance. Duncan's new multiple range tests at α=0.05 were used for mean separations.
(§5) Tween 20 (0.05% w/v) was included as an adjuvant.

[2] = test system: tomato (variety: Rutgers); assay: Tomato plant height, growth rate and leaf number (Example 9); details: for Leaf number: 15 days after treatment
Text: (§6) Tomato (variety: Rutgers) seeds were sown in 18-cell flat filled with Promix PGX (available from Premier Horticulture Inc. Quakertown, Pa.) and grown for 3 weeks to allow for germination and initial growth. Plants were then transplanted into pots (18 cm in diameter and 18 cm in height), filled with Promix BX (available from Premier Horticulture Inc. Quakertown, Pa.), and grown for one week before the chemical treatment. Plants received daily irrigation and weekly fertilizer (1 g/L all purpose fertilizer 20-20-20, available from The Scotts Company, Marysville, Ohio).
(§7) During the chemical treatment, a 15 mL (2.5 mL/plant) solution was foliar sprayed on the tomato canopy. Leaf transpiration rates were measured using a LI-1600 Steady State Porometer (LI-Cor, Lincoln, Nebr.) at 1, 2, 3, 4, 7, 10 and 15 days after treatment. Leaf transpiration rate was normalized to the percentage of control plant to minimize the experimental errors caused by environmental factors. Plant height was measured at 0, 2, 4, 7, 10 and 15 days after treatment. Growth rate was calculated based on the changes of plant height in certain intervals. The plants were harvested and the leaf number was counted at 15 days after treatment.

[3] = test system: Kentucky bluegrass; assay: Greenhouse Kentucky bluegrass height and quality, ABA and trinexapac-ethyl (Example 1); details: 200 ppm ABA
Procedure: Greenhouse studies were conducted at the Research Farm of Valent BioSciences Corporation (Long Grove, Ill.). Grasses were grown in pots (18 cm in diameter and 18 cm in height) filled with Promix BX (available from Premier Horticulture Inc. Quakertown, Pa.). Grass was irrigated daily by an overhead irrigation system. The irrigation system was set up with multiple Tornado Mist Spray Heads (10 GPH at 40 PSI-Wetted diameter, NDS/Raindrip, Woodland Hills, Calif.). Spray heads were 1-meter apart from each other and 75 cm above grass canopy. Grass was cut with a scissor at 2.5 cm height and fertilizer (1 g/L all purpose fertilizer 20-20-20, available from The Scotts Company, Marysville, Ohio) was applied once per week.
as §2, §3, §4
Kentucky bluegrass sod (unknown variety) was purchased from Deak sod farms, Inc. (Union Grove, Wis.). Grass was grown in the greenhouse in pots (n=6 pots per treatment) for establishment before treatment. […] Tween 20 (0.05% w/v) was included as an adjuvant. Turfgrass canopy was not cut during the experimental period.

[4] = test system: creeping bentgrass green; assay: Soil moisture of creeping bentgrass green, ABA and trinexapac-ethyl (Example 8); details: 500 ppm ABA
Procedure: as §1, §2, §3, §4, §5

[5] = test system: tomato (variety: Rutgers); assay: Tomato leaf transpiration, porometer (Example 9)
Text: as §6, §7

[6] = 250 ppm ABA, day 2 after treatment
[7] = 250 ppm ABA, day 4 after treatment
[8] = 250 ppm ABA, day 7 after treatment
[9] = 250 ppm ABA, day 10 after treatment
[10] = 250 ppm ABA, day 15 after treatment
[11] = 500 ppm ABA, day 2 after treatment
[12] = 500 ppm ABA, day 4 after treatment
[13] = 500 ppm ABA, day 7 after treatment
[14] = 500 ppm ABA, day 10 after treatment
[15] = 500 ppm ABA, day 15 after treatment
[16] = 1000 ppm ABA, day 2 after treatment
[17] = 1000 ppm ABA, day 4 after treatment
[18] = 1000 ppm ABA, day 7 after treatment
[19] = 1000 ppm ABA, day 10 after treatment
[20] = 1000 ppm ABA, day 15 after treatment
[21] = 2000 ppm ABA, day 2 after treatment
[22] = 2000 ppm ABA, day 4 after treatment
[23] = 2000 ppm ABA, day 7 after treatment
[24] = 2000 ppm ABA, day 10 after treatment
[25] = 2000 ppm ABA, day 15 after treatment

Substance: S-abscisic acid [ABA]
- Turfgrass height ([1]; 7 days after treatment): 5.3 cm
- Turfgrass height ([1]; 14 days after treatment): 8.2 cm
- Leaf number ([2]; 250 ppm ABA): 12.2
- Plant height ([2]; 250 ppm ABA, day 0 after treatment): 9.9 cm
- Growth rate [2, 6]: 1.5 cm/day
- Plant height [2, 6]: 12.8 cm
- Growth rate [2, 7]: 1.6 cm/day
- Plant height [2, 7]: 16.3 cm
- Growth rate [2, 8]: 2.7 cm/day
- Plant height [2, 8]: 28.5 cm
- Growth rate [2, 9]: 2.1 cm/day
- Plant height [2, 9]: 30.4 cm
- Growth rate [2, 10]: 2.3 cm/day
- Plant height [2, 10]: 45.5 cm
- Leaf number ([2]; 500 ppm ABA): 12.0
- Plant height ([2]; 500 ppm ABA, day 0 after treatment): 10.1 cm
- Growth rate [2, 11]: 1.3 cm/day
- Plant height [2, 11]: 12.5 cm
- Growth rate [2, 12]: 1.6 cm/day
- Plant height [2, 12]: 16.3 cm
- Growth rate [2, 13]: 2.4 cm/day
- Plant height [2, 13]: 27.0 cm
- Growth rate [2, 14]: 2.0 cm/day
- Plant height [2, 14]: 29.6 cm
- Growth rate [2, 15]: 2.3 cm/day
- Plant height [2, 15]: 44.1 cm
- Leaf number ([2]; 1000 ppm ABA): 12.0
- Plant height ([2]; 1000 ppm ABA, day 0 after treatment): 9.8 cm
- Growth rate [2, 16]: 1.0 cm/day
- Plant height [2, 16]: 11.7 cm
- Growth rate [2, 17]: 1.2 cm/day
- Plant height [2, 17]: 14.5 cm
- Growth rate [2, 18]: 2.2 cm/day
- Plant height [2, 18]: 25.3 cm
- Growth rate [2, 19]: 1.8 cm/day
- Plant height [2, 19]: 27.4 cm
- Growth rate [2, 20]: 2.0 cm/day
- Plant height [2, 20]: 41.6 cm
- Leaf number ([2]; 2000 ppm ABA): 12.0
- Plant height ([2]; 2000 ppm ABA, day 0 after treatment): 9.8 cm
- Growth rate [2, 21]: 0.9 cm/day
- Plant height [2, 21]: 11.5 cm
- Growth rate [2, 22]: 1.3 cm/day
- Plant height [2, 22]: 14.9 cm
- Growth rate [2, 23]: 1.9 cm/day
- Plant height [2, 23]: 23.2 cm
- Growth rate [2, 24]: 1.6 cm/day
- Plant height [2, 24]: 25.8 cm
- Growth rate [2, 25]: 1.9 cm/day
- Plant height [2, 25]: 40.5 cm
- Turfgrass height ([3]; 7 days after treatment): 9.4 cm
- Turfgrass height ([3]; 23 days after treatment): 19.0 cm
- Soil moisture ([4]; 2 days after treatment): 11.4%
- Soil moisture ([4]; 7 days after treatment): 10.9%
- Transpiration ([5]; 250 ppm ABA, day 1 after treatment): 87 % of control
- Transpiration [5, 6]: 86 % of control
- Transpiration ([5]; 250 ppm ABA, day 3 after treatment): 91 % of control
- Transpiration [5, 7]: 95 % of control
- Transpiration [5, 8]: 99 % of control
- Transpiration [5, 9]: 98 % of control
- Transpiration [5, 10]: 99 % of control
- Transpiration ([5]; 500 ppm ABA, day 1 after treatment): 78 % of control
- Transpiration [5, 11]: 78 % of control
- Transpiration ([5]; 500 ppm ABA, day 3 after treatment): 84 % of control
- Transpiration [5, 12]: 88 % of control
- Transpiration [5, 13]: 98 % of control
- Transpiration [5, 14]: 99 % of control
- Transpiration [5, 15]: 99 % of control
- Transpiration ([5]; 1000 ppm ABA, day 1 after treatment): 60 % of control
- Transpiration [5, 16]: 73 % of control
- Transpiration ([5]; 1000 ppm ABA, day 3 after treatment): 76 % of control
- Transpiration [5, 17]: 84 % of control
- Transpiration [5, 18]: 93 % of control
- Transpiration [5, 19]: 99 % of control
- Transpiration [5, 20]: 97 % of control
- Transpiration ([5]; 2000 ppm ABA, day 1 after treatment): 46 % of control
- Transpiration [5, 21]: 58 % of control
- Transpiration ([5]; 2000 ppm ABA, day 3 after treatment): 70 % of control
- Transpiration [5, 22]: 76 % of control
- Transpiration [5, 23]: 85 % of control
- Transpiration [5, 24]: 95 % of control
- Transpiration [5, 25]: 100 % of control
